Here are results for 11 compounds from BindingDB's records for doi:10.1016/s0968-0896(01)00250-4 (Pfizer, 2002).

SMILES strings stand for the structures.

For this assay, the target named is T1, Caspase-1 (Homo sapiens, UniProt P29466).
T1 sequence (P29466 whole entry): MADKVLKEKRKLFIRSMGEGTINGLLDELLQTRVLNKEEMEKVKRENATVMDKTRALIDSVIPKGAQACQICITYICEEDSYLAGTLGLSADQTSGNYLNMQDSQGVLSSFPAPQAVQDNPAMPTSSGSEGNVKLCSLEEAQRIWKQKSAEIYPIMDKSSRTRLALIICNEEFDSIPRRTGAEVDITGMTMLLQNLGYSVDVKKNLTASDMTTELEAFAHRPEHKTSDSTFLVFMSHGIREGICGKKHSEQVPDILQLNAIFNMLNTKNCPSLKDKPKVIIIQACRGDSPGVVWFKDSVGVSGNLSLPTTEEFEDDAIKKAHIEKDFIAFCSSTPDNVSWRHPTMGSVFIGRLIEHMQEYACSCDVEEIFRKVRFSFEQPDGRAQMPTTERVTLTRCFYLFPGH
The experiment in a line: Caspase Inhibition Assay. As to conditions: pH 7; 37 °C. How it is done:
The substrate peptides terminating in AMC are processed by caspases with or without inhibitors, and the accumulation of AMC was assessed with a Cytofluor fluorescent plate reader at excitation and emission wavelengths of 380 and 460 nm. Compounds were tested, and full IC50 curves were run for all compounds expressing measurable inhibitory activity.

Turning to `CC(=O)N[C@@H](Cc1ccc(O)cc1)C(=O)N[C@H](C(=O)N[C@@H](C)C(=O)N[C@@H](CC(=O)O)C(=O)CCCCCc1ccccc1)C(C)C` [(3S)-3-[(2S)-2-[(2S)-2-[(2S)-2-acetamido-3-(4-hydroxyphenyl)propanamido]-3-methylbutanamido]propanamido]-4-oxo-9-phenylnonanoic acid], the affinity corresponds to a Ki of 0.011 µM.

On to `O=C(O)C[C@H](NS(=O)(=O)c1ccccc1)C(=O)CSCCCc1ccccc1` [(3S)-3-benzenesulfonamido-4-oxo-5-[(3-phenylpropyl)sulfanyl]pentanoic acid], for which the affinity, expressed as Ki, was 24 µM. Compared with the last compound, the Ki is about 2200-fold higher. With `O=C(O)C[C@H](NS(=O)(=O)c1ccccc1)C(=O)CCCCCc1ccccc1` [(3S)-3-benzenesulfonamido-4-oxo-9-phenylnonanoic acid], the Ki (as a rule, a dissociation constant, usually derived from enzyme kinetics or from competition with a known ligand) stood at 24 µM. That is a double-digit micromolar value.

In the case of `O=C[C@H](CC(=O)O)NS(=O)(=O)c1ccccc1` [(3S)-3-benzenesulfonamido-4-oxobutanoic acid], the Ki was 9.4 µM. In the case of `Cc1cccc(-c2ccccc2S(=O)(=O)N[C@H](C=O)CC(=O)O)c1` [(3S)-3-{[2-(3-methylphenyl)benzene]sulfonamido}-4-oxobutanoic acid], the Ki worked out at 3.1 µM. In turn, `Cc1ccc(-c2ccccc2S(=O)(=O)N[C@H](C=O)CC(=O)O)cc1` [(3S)-3-{[2-(4-methylphenyl)benzene]sulfonamido}-4-oxobutanoic acid] returned an inhibition constant (Ki) of 7.2 µM. With `O=C[C@H](CC(=O)O)NS(=O)(=O)c1ccccc1-c1cccc2ccccc12` [(3S)-3-{[2-(naphthalen-1-yl)benzene]sulfonamido}-4-oxobutanoic acid] the figure was 6.9 µM; with `Cc1ccccc1-c1ccccc1S(=O)(=O)N[C@H](C=O)CC(=O)O` [(S)-3-(2-Methyl-biphenyl-2-sulfonylamino)-4-oxo-butyric acid], 6.8 µM; with `Cc1cccc(S(=O)(=O)N[C@H](C=O)CC(=O)O)c1-c1ccccc1` [(S)-3-(6-Methyl-biphenyl-2-sulfonylamino)-4-oxo-butyric acid], 1.9 µM. With `O=C(O)C[C@H](NC(=O)OCc1ccccc1)C(=O)CSCCCc1ccccc1` [(S)-3-Benzyloxycarbonylamino-4-oxo-5-(3-phenyl-propyl-sulfanyl)-pentanoic acid], the affinity corresponds to a Ki of 25 µM.

For the compound `O=C(O)C[C@H](NC(=O)OCc1ccccc1)C(=O)CCCCCc1ccccc1` [(S)-3-Benzyloxycarbonylamino-4-oxo-9-phenyl-nonanoic acid], the affinity, expressed as Ki, was 119 µM.
